Results reported in PMC9231250, “Cardio- and Neurotoxicity of Selected Anti-COVID-19 Drugs” (Pharmaceuticals, 2022).
Structures can show the parent of a compound that is named as a salt. Where two headings read alike, the source gives them in different places.

Tests used:
[1] = system: hiPSC-CMs; test: Cardiotoxicity screen, CellTiter-Glo cell viability in hiPSC-derived cardiomyocytes; details: 24 h; for IC50: Homo sapiens, Cardiomyocyte, read-out: cardiotoxicity IC50; for cardiotoxicity (in words): hiPSC-CMs, CellTiter-Glo
[2] = system: hiPSC-NEURs
[3] = system: hiPSC-CMs
[4] = system: hiPSC-NEURs; test: Neurotoxicity screen, CellTiter-Glo cell viability in hiPSC-derived neurons; details: for IC50: Homo sapiens, Neuron
[5] = system: COVID-19 patients; details: cited from earlier work
[6] = system: Vero (African monkey epithelial) cells; details: cited from earlier work
[7] = system: Huh7.5 (human epithelial-like) cells; details: Huh7.5 cells; cited from earlier work
[8] = following the clinical dosing regimen; cited from earlier work
[9] = 24 h, read-out: neurotoxicity IC50
[10] = hiPSC-NEURs, 24 h, CellTiter-Glo

CCOC(=O)c1c(CSc2ccccc2)n(C)c2cc(Br)c(O)c(CN(C)C)c12 [arbidol, arbidol hydrochloride]
IC50 [1]: 61 µM
neurotoxicity (in words) [2]: Neurotoxic
cardiotoxicity (in words) [3]: Cardiotoxic
IC50 [4, 9]: 42 µM
in-hospital mortality ([5]; COVID-19 patients, 200 mg three times per day): increased risk of in-hospital mortality

CCN(CC)CCCC(C)Nc1ccnc2cc(Cl)ccc12 (stereo not shown) [chloroquine]
further neurotoxicity on addition of azithromycin [2]: did not induce further neurotoxicity
neurotoxicity (in words) [2]: Neurotoxic
IC50 [4, 9]: 71 µM

CCN(CCO)CCCC(C)Nc1ccnc2cc(Cl)ccc12 (stereo not shown) [hydroxychloroquine]
cardiotoxicity (in words) [1]: not cardiomyocytes
cell toxicity [6]: observe toxicity
cell toxicity [7]: observe toxicity
IC50 [4, 9]: 52 µM
neurotoxicity (in words) [4, 10]: toxicity in neurons
neurotoxicity (in words) ([4]; hiPSC-NEURs, 24 h, CellTiter-Glo, listed as Hydroxychloroquine): Neurotoxic
further neurotoxicity on addition of azithromycin ([4]; hiPSC-NEURs, combined with 5 µM or 10 µM azithromycin, 24 h, CellTiter-Glo): did not induce further neurotoxicity

CCC(CC)COC(=O)[C@H](C)N[P@](=O)(OC[C@H]1O[C@@](C#N)(c2ccc3c(N)ncnn23)[C@H](O)[C@@H]1O)Oc1ccccc1 [remdesivir]
IC50 [1]: 51 µM
cardiotoxicity (in words) [1]: Cardiotoxic
cell toxicity [6]: did not observe cell toxicity
cell toxicity [7]: did not observe cell toxicity
plasma concentration, lower end [8]: ≥ 16.7 µM
plasma concentration, upper end [8]: ≤ 1700 µM
IC50 [4, 9]: 41 µM
IC50 ([4]; read-out: neurotoxicity, individual variability between individuals (lowest)): 3 µM
neurotoxicity (in words) [4, 10]: Neurotoxic
adverse effects on the cardiovascular system [5]: hypotension, atrial fibrillation rhythm, and sinus bradycardia
